# Test results published in patent publication US8450313B2, “2,3-diaryl- or heteroaryl-substituted 1,1,1-trifluoro-2-hydroxypropyl compounds” (Hoffmann-La Roche Inc., priority 2009, dated 2013).
# Molecular target: T1, full length human recombinant glucocorticoid receptor (Homo sapiens, UniProt P04150)
# T1 construct: It contains some partially purified full length human recombinant glucocorticoid receptor; purchased Panvera/Invitrogen PV4302
# T1 sequence (P04150 1-777): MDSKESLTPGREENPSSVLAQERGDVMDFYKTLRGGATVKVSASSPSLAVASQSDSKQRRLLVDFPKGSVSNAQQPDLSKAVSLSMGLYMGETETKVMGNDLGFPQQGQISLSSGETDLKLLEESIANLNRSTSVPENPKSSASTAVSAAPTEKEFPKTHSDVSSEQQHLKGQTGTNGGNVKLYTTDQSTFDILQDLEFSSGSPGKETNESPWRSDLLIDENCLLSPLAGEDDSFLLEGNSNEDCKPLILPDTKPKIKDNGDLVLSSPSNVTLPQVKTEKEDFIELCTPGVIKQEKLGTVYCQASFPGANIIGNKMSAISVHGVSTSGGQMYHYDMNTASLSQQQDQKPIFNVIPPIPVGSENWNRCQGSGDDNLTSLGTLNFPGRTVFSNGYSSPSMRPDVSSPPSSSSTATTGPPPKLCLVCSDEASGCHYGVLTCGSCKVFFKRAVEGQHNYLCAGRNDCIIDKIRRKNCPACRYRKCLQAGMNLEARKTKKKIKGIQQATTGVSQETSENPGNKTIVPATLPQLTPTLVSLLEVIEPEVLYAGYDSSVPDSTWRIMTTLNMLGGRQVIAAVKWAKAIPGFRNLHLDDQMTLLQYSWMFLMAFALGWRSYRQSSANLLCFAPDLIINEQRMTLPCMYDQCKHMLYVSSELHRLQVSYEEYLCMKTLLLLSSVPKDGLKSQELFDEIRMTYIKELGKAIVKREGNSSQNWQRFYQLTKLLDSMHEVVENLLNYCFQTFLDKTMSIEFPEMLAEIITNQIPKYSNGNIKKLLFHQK
# Test: Glucocorticoid Receptor Binding Assay (Glucocorticoid Receptor Competitor Assay far red kit, fluorescence polarization)
# Details: competition with fluorescent GR ligand Fluormone GS Far Red, 3 hours at 22° C., pH 7.4; Ki calculated from IC50 by Cheng-Prusoff
# Description: Glucocorticoid Receptor Binding Assay
# The ability of the substances to bind to the glucocorticoid receptor was determined with the help of a commercial Glucocorticoid Receptor Competitor Assay far red kit provided by Panvera/Invitrogen (PV4302). This kit is used as provided by the supplier. It contains some partially purified full length human recombinant glucocorticoid receptor, a coactivator related GR stabilizing peptide, a tight-binding fluorescent GR ligand Fluormone™ GS Far Red as labeled tracer and a screening buffer. All reagents are prepared and the assay is run according to the recommendations of the kit manufacturer.
# Briefly, the GR stabilizing peptide and the human recombinant glucocorticoid receptor are both diluted with the screening buffer (pH 7.4) and are gently mixed (no vortexing) just before the assay and kept on ice until use. The fluorescent-labeled ligand is also diluted with the screening buffer just before the assay and kept on ice until use. The substances to test are pre-diluted in pure DMSO then some water is added to get an intermediate 4.2% DMSO stock solution. Ten microliter of the intermediate stock solution is gently mixed with 5 μA of diluted fluorescent-labeled ligand and 5 μl of diluted human recombinant glucocorticoid receptor in a 384-well plate (low volume, ultraclear, glass plate from Greiner ref 788896). The plate is centrifuged, sealed and incubated for 3 hours at 22° C. in the dark. The polarized fluorescence is measured with a Zeiss-HTS reader or any equivalent equipment (610-660 nm).
# All compounds were tested to determine IC50 in a serial dilution experiment. The concentration at which 50% inhibition of the fluorescent GR ligand Fluormone™ GS Far Red is obtained (the IC50) is determined after fitting with a sigmoidal dose-response model of a plot of the logarithm of the concentration versus percent inhibition measured for the different concentrations. Ki's were calculated from IC50 based on Cheng-Prusoff equation (Cheng, Y, Prusoff, W H (1973) Biochem Pharmacol 22, 3099-3108): Ki=IC50/[1+D/Kd] wherein D is the concentration of the fluorescent ligand and Kd is the binding constant for the fluorescent ligand binding to the receptor under the conditions used in the competition experiment.
row,Ki [nM],Structure (SMILES)
1,10.9,"C[C@@H](c1ccc(-c2ccc(C(=O)O)c(F)c2)cc1Cl)[C@](O)(c1cc(F)c2c(c1)N(C)C(=O)CO2)C(F)(F)F (relative stereo) [Example 46, 3′-Chloro-3-fluoro-4′-[3,3,3-trifluoro-2-(8-fluoro-4-methyl-3-oxo-3,4-dihydro-2H-benzo[1,4]oxazin-6-yl)-2-hydroxy-1-methyl-propyl]-biphenyl-4-carboxylic acid]"
2,0.3,"C[C@H](c1ccc(Oc2ccc(F)c(C(=O)O)c2)cc1Cl)[C@@](O)(c1ccc2c(c1)N(C)C(=O)CO2)C(F)(F)F (racemic) [Example 56, 5-{3-Chloro-4-[3,3,3-trifluoro-2-hydroxy-1-methyl-2-(4-methyl-3-oxo-3,4-dihydro-2H-benzo[1,4]oxazin-6-yl)-propyl]-phenoxy}-2-fluoro-benzoic acid]"
3,2.6,"COC(=O)c1ccc(-c2ccc([C@H](C)[C@](O)(c3ccc4c(c3)N(C)C(=O)CO4)C(F)(F)F)c(Cl)c2)cc1OC (relative stereo) [Example 35, 3′-Chloro-3-methoxy-4′-[3,3,3-trifluoro-2-hydroxy-1-methyl-2-(4-methyl-3-oxo-3,4-dihydro-2H-benzo[1,4]oxazin-6-yl)-propyl]-biphenyl-4-carboxylic acid methyl ester]"
4,8.9,"COC(=O)c1ccc(Oc2ccc(Cl)c([C@H](C)[C@](O)(c3ccc4c(c3)N(C)C(=O)CO4)C(F)(F)F)c2)cc1Cl (relative stereo) [Example 9, 2-Chloro-4-{4-chloro-3-[3,3,3-trifluoro-2-hydroxy-1-methyl-2-(4-methyl-3-oxo-3,4-dihydro-2H-benzo[1,4]oxazin-6-yl)-propyl]-phenoxy}-benzoic acid methyl ester]"
5,210,"C[C@H](c1ccc(-c2ccc(C(=O)O)c(F)c2)cc1Cl)[C@@](O)(c1ccc2c(c1)N(C)CCO2)C(F)(F)F (stereo in doubt) [Example 170, 3′-Chloro-3-fluoro-4′-[3,3,3-trifluoro-2-hydroxy-1-methyl-2-(4-methyl-3,4-dihydro-2H-benzo[1,4]oxazin-6-yl)-propyl]-biphenyl-4-carboxylic acid]"
6,0.4,"COc1ccc([C@@H](C)[C@@](O)(c2ccc3oc(=O)n(C)c3c2)C(F)(F)F)c(Cl)c1 (stereo in doubt) [Example 171, 5-[2-(2-Chloro-4-methoxy-phenyl)-1-hydroxy-1-trifluoromethyl-propyl]-3-methyl-3H-benzooxazol-2-one]"
7,35.9,"CCN1C(=O)COc2ccc([C@@](O)([C@@H](C)c3ccc(Oc4ccc(C(=O)O)c(Cl)n4)cc3Cl)C(F)(F)F)cc21 (relative stereo) [Example 69, 2-Chloro-6-{3-chloro-4-[2-(4-ethyl-3-oxo-3,4-dihydro-2H-benzo[1,4]oxazin-6-yl)-3,3,3-trifluoro-2-hydroxy-1-methyl-propyl]-phenoxy}-nicotinic acid]"
8,13.6,"COc1cc(-c2ccc([C@@H](C)[C@@](O)(c3ccc4c(c3)n(C)c(=O)n4C)C(F)(F)F)c(Cl)c2)ccc1C(=O)O (stereo in doubt) [Example 80, 3′-Chloro-4′-[2-(1,3-dimethyl-2-oxo-2,3-dihydro-1H-benzoimidazol-5-yl)-3,3,3-trifluoro-2-hydroxy-1-methyl-propyl]-3-methoxy-biphenyl-4-carboxylic acid]"
9,16,"COC(=O)c1ccc(-c2ccc([C@H](C)[C@](O)(c3ccc(=O)n4ccccc34)C(F)(F)F)c(Cl)c2)cc1F (stereo in doubt) [Example 49, 3′-Chloro-3-fluoro-4′-[3,3,3-trifluoro-2-hydroxy-1-methyl-2-(4-oxo-4H-quinolizin-1-yl)-propyl]-biphenyl-4-carboxylic acid methyl ester]"
10,7.3,"CC(c1ccc(-c2ccc(C(=O)O)c(F)c2)cc1Cl)C(O)(c1ccc2c(c1)n(C)c(=O)n2C)C(F)(F)F (stereo not drawn) [Example 73, 3′-Chloro-4′-[2-(1,3-dimethyl-2-oxo-2,3-dihydro-1H-benzoimidazol-5-yl)-3,3,3-trifluoro-2-hydroxy-1-methyl-propyl]-3-fluoro-biphenyl-4-carboxylic acid]"
11,17.3,"COC(=O)c1ccc(-c2ccc([C@H](C)[C@](O)(c3ccc4c(c3)N(C)C(=O)CO4)C(F)(F)F)c(Cl)c2)c(F)c1 (relative stereo) [Example 33, 3′-Chloro-2-fluoro-4′-[3,3,3-trifluoro-2-hydroxy-1-methyl-2-(4-methyl-3-oxo-3,4-dihydro-2H-benzo[1,4]oxazin-6-yl)-propyl]-biphenyl-4-carboxylic acid methyl ester]"
12,0.9,"C[C@H](c1ccc(Oc2ncc(C(=O)O)cc2Cl)cc1Cl)[C@@](O)(c1ccc2c(c1)OCC(=O)N2C)C(F)(F)F (stereo in doubt) [Example 165, 5-Chloro-6-{3-chloro-4-[3,3,3-trifluoro-2-hydroxy-1-methyl-2-(4-methyl-3-oxo-3,4-dihydro-2H-benzo[1,4]oxazin-7-yl)-propyl]-phenoxy}-nicotinic acid]"
13,2.1,"COC(=O)c1ccc(-c2ccc([C@@H](C)[C@@](O)(c3ccc4oc(=O)n(C)c4c3)C(F)(F)F)c(Cl)c2)cn1 (relative stereo) [Example 187, 5-{3-Chloro-4-[3,3,3-trifluoro-2-hydroxy-1-methyl-2-(3-methyl-2-oxo-2,3-dihydro-benzooxazol-5-yl)-propyl]-phenyl}-pyridine-2-carboxylic acid methyl ester]"
14,1.5,"C[C@@H](c1ccc(-c2cccc(CC(=O)O)c2)cc1Cl)[C@](O)(c1ccc2c(c1)N(C)C(=O)CO2)C(F)(F)F (relative stereo) [Example 41, {3′-Chloro-4′-[3,3,3-trifluoro-2-hydroxy-1-methyl-2-(4-methyl-3-oxo-3,4-dihydro-2H-benzo[1,4]oxazin-6-yl)-propyl]-biphenyl-3-yl}-acetic acid]"
15,0.3,"C[C@H](c1ccc(Oc2ccc(Cl)c(C(=O)O)c2)cc1Cl)[C@@](O)(c1ccc2c(c1)N(C)C(=O)CO2)C(F)(F)F (racemic) [Example 58, 2-Chloro-5-{3-chloro-4-[3,3,3-trifluoro-2-hydroxy-1-methyl-2-(4-methyl-3-oxo-3,4-dihydro-2H-benzo[1,4]oxazin-6-yl)-propyl]-phenoxy}-benzoic acid]"
16,2,"COC(=O)c1ccc(-c2ccc([C@H](C)[C@](O)(c3ccc4c(c3)N(C)C(=O)CO4)C(F)(F)F)c(Cl)c2)cc1Cl (relative stereo) [Example 30, 3,3′-Dichloro-4′-[3,3,3-trifluoro-2-hydroxy-1-methyl-2-(4-methyl-3-oxo-3,4-dihydro-2H-benzo[1,4]oxazin-6-yl)-propyl]-biphenyl-4-carboxylic acid methyl ester]"
17,2.1,"COC(=O)c1ccc(-c2ccc([C@H](C)[C@](O)(c3cc(F)c4c(c3)N(C)C(=O)CO4)C(F)(F)F)c(Cl)c2)cc1F (relative stereo) [Example 45, 3′-Chloro-3-fluoro-4′-[3,3,3-trifluoro-2-(8-fluoro-4-methyl-3-oxo-3,4-dihydro-2H-benzo[1,4]oxazin-6-yl)-2-hydroxy-1-methyl-propyl]-biphenyl-4-carboxylic acid methyl ester]"
18,2.1,"Cc1cc([C@@](O)([C@@H](C)c2ccc(Oc3ccc(C(=O)O)c(F)c3)cc2Cl)C(F)(F)F)cc(C)c1C#N (stereo in doubt) [Example 142, 4-{3-Chloro-4-[2-(4-cyano-3,5-dimethyl-phenyl)-3,3,3-trifluoro-2-hydroxy-1-methyl-propyl]-phenoxy}-2-fluoro-benzoic acid]"
